{"source": "patent US20100041089A1", "about": "“IMPROVED METHOD FOR DETECTING CHEMICAL […]” (priority 2006, published 2010)", "system": "yeast genes (expressed mRNA)", "test": "DNA chip measurement of expressed mRNA of yeast genes after culture with a toxic chemical substance", "type": "cell-based, Saccharomyces cerevisiae S288C", "conditions": "for The level of expressed mRNA in the presence of chemical substance/The level of expressed mRNA in the absence of chemical substance: cultured two hours with substance; for level of expressed mRNA in the presence of chemical substance / level in the absence of chemical substance: cultured two hours with the chemical substance", "in_short": "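S. cerevisiae S288C grown at 25 °C in YPD, exposed in log phase for 2 h to a toxicant at growth-inhibiting, non-lethal concentration. Cy3/Cy5-labelled cDNA from poly(A) mRNA hybridized to whole-genome chip at 65 °C >12 h. Ratio to untreated control, ≥2 significant.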"}
{"substance": "Manganese ethylenebis(dithiocarbamate) [(8)]", "values": [{"measurement": "The level of expressed mRNA in the presence of chemical substance/The level of expressed mRNA in the absence of chemical substance", "setting": "yeast gene YNL044W", "value": 1.8}, {"measurement": "level of expressed mRNA in the presence of chemical substance / level in the absence of chemical substance", "setting": "yeast gene YNL063W", "value": 1.5}, {"measurement": "The level of expressed mRNA in the presence of chemical substance/The level of expressed mRNA in the absence of chemical substance", "setting": "yeast gene YNL074C", "value": 0.6}, {"measurement": "The level of expressed mRNA in the presence of chemical substance/The level of expressed mRNA in the absence of chemical substance", "setting": "yeast gene YNL092W", "value": 0.9}, {"measurement": "The level of expressed mRNA in the presence of chemical substance/The level of expressed mRNA in the absence of chemical substance", "setting": "yeast gene YNL115C", "value": 0.8}, {"measurement": "The level of expressed mRNA in the presence of chemical substance/The level of expressed mRNA in the absence of chemical substance", "setting": "yeast gene YNL156C", "value": 1.2}, {"measurement": "level of expressed mRNA in the presence of chemical substance / level in the absence of chemical substance", "setting": "yeast gene YNL176C", "value": 0.9}, {"measurement": "level of expressed mRNA in the presence of chemical substance / level in the absence of chemical substance", "setting": "yeast gene YNL194C", "value": 0.9}, {"measurement": "level of expressed mRNA in the presence of chemical substance / level in the absence of chemical substance", "setting": "yeast gene YNL200C", "value": 0.7}, {"measurement": "The level of expressed mRNA in the presence of chemical substance/The level of expressed mRNA in the absence of chemical substance", "setting": "yeast gene YNL234W", "value": 1.3}, {"measurement": "level of expressed mRNA in the presence of chemical substance / level in the absence of chemical substance", "setting": "yeast gene YNL253W", "value": 1.1}, {"measurement": "level of expressed mRNA in the presence of chemical substance / level in the absence of chemical substance", "setting": "yeast gene YNL276C", "value": 0.7}, {"measurement": "The level of expressed mRNA in the presence of chemical substance/The level of expressed mRNA in the absence of chemical substance", "setting": "yeast gene YNL281W", "value": 1.2}, {"measurement": "The level of expressed mRNA in the presence of chemical substance/The level of expressed mRNA in the absence of chemical substance", "setting": "yeast gene YNL305C", "value": 0.7}, {"measurement": "level of expressed mRNA in the presence of chemical substance / level in the absence of chemical substance", "setting": "yeast gene YNR051C", "value": 0.7}, {"measurement": "The level of expressed mRNA in the presence of chemical substance/The level of expressed mRNA in the absence of chemical substance", "setting": "yeast gene YNR068C", "value": 1.1}, {"measurement": "level of expressed mRNA in the presence of chemical substance / level in the absence of chemical substance", "setting": "yeast gene YOL026C", "value": 1.1}, {"measurement": "The level of expressed mRNA in the presence of chemical substance/The level of expressed mRNA in the absence of chemical substance", "setting": "yeast gene YOL032W", "value": 1.5}, {"measurement": "The level of expressed mRNA in the presence of chemical substance/The level of expressed mRNA in the absence of chemical substance", "setting": "yeast gene YOL036W", "value": 0.8}, {"measurement": "The level of expressed mRNA in the presence of chemical substance/The level of expressed mRNA in the absence of chemical substance", "setting": "yeast gene YOL047C", "value": 1.1}, {"measurement": "The level of expressed mRNA in the presence of chemical substance/The level of expressed mRNA in the absence of chemical substance", "setting": "yeast gene YOL071W", "value": 1.6}, {"measurement": "The level of expressed mRNA in the presence of chemical substance/The level of expressed mRNA in the absence of chemical substance", "setting": "yeast gene YOL082W", "value": 1.1}, {"measurement": "The level of expressed mRNA in the presence of chemical substance/The level of expressed mRNA in the absence of chemical substance", "setting": "yeast gene YOL083W", "value": 1.3}, {"measurement": "The level of expressed mRNA in the presence of chemical substance/The level of expressed mRNA in the absence of chemical substance", "setting": "yeast gene YOL117W", "value": 1.1}, {"measurement": "The level of expressed mRNA in the presence of chemical substance/The level of expressed mRNA in the absence of chemical substance", "setting": "yeast gene YOL131W", "value": 1.1}, {"measurement": "The level of expressed mRNA in the presence of chemical substance/The level of expressed mRNA in the absence of chemical substance", "setting": "yeast gene YOL150C", "value": 3.7}, {"measurement": "The level of expressed mRNA in the presence of chemical substance/The level of expressed mRNA in the absence of chemical substance", "setting": "yeast gene YOL162W", "value": 1.6}, {"measurement": "The level of expressed mRNA in the presence of chemical substance/The level of expressed mRNA in the absence of chemical substance", "setting": "yeast gene YOR019W", "value": 1.1}, {"measurement": "level of expressed mRNA in the presence of chemical substance / level in the absence of chemical substance", "setting": "yeast gene YOR022C", "value": 1.2}, {"measurement": "level of expressed mRNA in the presence of chemical substance / level in the absence of chemical substance", "setting": "yeast gene YOR087W", "value": 0.8}, {"measurement": "level of expressed mRNA in the presence of chemical substance / level in the absence of chemical substance", "setting": "yeast gene YOR138C", "value": 0.8}, {"measurement": "The level of expressed mRNA in the presence of chemical substance/The level of expressed mRNA in the absence of chemical substance", "setting": "yeast gene YOR197W", "value": 0.9}, {"measurement": "level of expressed mRNA in the presence of chemical substance / level in the absence of chemical substance", "setting": "yeast gene YOR253W", "value": 1.2}, {"measurement": "level of expressed mRNA in the presence of chemical substance / level in the absence of chemical substance", "setting": "yeast gene YOR267C", "value": 0.7}, {"measurement": "level of expressed mRNA in the presence of chemical substance / level in the absence of chemical substance", "setting": "yeast gene YOR325W", "value": 0.9}, {"measurement": "level of expressed mRNA in the presence of chemical substance / level in the absence of chemical substance", "setting": "yeast gene YPL005W", "value": 1.0}, {"measurement": "The level of expressed mRNA in the presence of chemical substance/The level of expressed mRNA in the absence of chemical substance", "setting": "yeast gene YPL087W", "value": 1.0}, {"measurement": "level of expressed mRNA in the presence of chemical substance / level in the absence of chemical substance", "setting": "yeast gene YPL150W", "value": 1.1}, {"measurement": "level of expressed mRNA in the presence of chemical substance / level in the absence of chemical substance", "setting": "yeast gene YPL152W", "value": 1.1}, {"measurement": "level of expressed mRNA in the presence of chemical substance / level in the absence of chemical substance", "setting": "yeast gene YPL168W", "value": 1.2}, {"measurement": "level of expressed mRNA in the presence of chemical substance / level in the absence of chemical substance", "setting": "yeast gene YPL180W", "value": 1.0}, {"measurement": "level of expressed mRNA in the presence of chemical substance / level in the absence of chemical substance", "setting": "yeast gene YPL188W", "value": 1.6}, {"measurement": "The level of expressed mRNA in the presence of chemical substance/The level of expressed mRNA in the absence of chemical substance", "setting": "yeast gene YPL196W", "value": 1.2}, {"measurement": "The level of expressed mRNA in the presence of chemical substance/The level of expressed mRNA in the absence of chemical substance", "setting": "yeast gene YPL206C", "value": 1.0}, {"measurement": "level of expressed mRNA in the presence of chemical substance / level in the absence of chemical substance", "setting": "yeast gene YPL221W", "value": 0.9}, {"measurement": "The level of expressed mRNA in the presence of chemical substance/The level of expressed mRNA in the absence of chemical substance", "setting": "yeast gene YPL222W", "value": 0.7}, {"measurement": "level of expressed mRNA in the presence of chemical substance / level in the absence of chemical substance", "setting": "yeast gene YPL225W", "value": 1.7}, {"measurement": "The level of expressed mRNA in the presence of chemical substance/The level of expressed mRNA in the absence of chemical substance", "setting": "yeast gene YPR023C", "value": 0.9}, {"measurement": "level of expressed mRNA in the presence of chemical substance / level in the absence of chemical substance", "setting": "yeast gene YPR049C", "value": 1.1}, {"measurement": "level of expressed mRNA in the presence of chemical substance / level in the absence of chemical substance", "setting": "yeast gene YPR146C", "value": 0.8}, {"measurement": "level of expressed mRNA in the presence of chemical substance / level in the absence of chemical substance", "setting": "yeast gene YPR148C", "value": 1.5}, {"measurement": "The level of expressed mRNA in the presence of chemical substance/The level of expressed mRNA in the absence of chemical substance", "setting": "yeast gene YPR151C", "value": 1.4}, {"measurement": "level of expressed mRNA in the presence of chemical substance / level in the absence of chemical substance", "setting": "yeast gene YPR172W", "value": 1.0}]}
